In brackets after ≈: the same amount, converted by molar mass. Where two headings read alike, the source gives them in different places.
Columns and labels:
Type in all cases: cell-based
[1] = test system: human umbilical-vein endothelial cells (HUVEC); assay: Cell Migration Assay (CMA) Test, HUVEC (% relative to control); details: 24 hours, 60% or less = remarkable inhibition; for activity at 1 µg/mL / activity at 10 µg/mL: Homo sapiens, HUVEC, read-out: CMA (% relative to control)
Method: (§1) Furthermore, the sample liquids of compounds used in the CPA and CMA tests were prepared in the manner described below. Firstly, after weighing out each compound, a calculated amount of DMSO was added. After dissolving the compound in the DMSO, phosphate buffered physiological saline (PBS (-)) was added to bring the sample concentration to 1 mg/ml in PBS (-). The amount of DMSO used to dissolve the compounds was adjusted in advance to that the concentration of DMSO at that time was 5%. The resulting liquids were diluted 10-fold with 5% DMSO-PBS (-) solution to prepare sample solutions having a concentration of 0.1 mg/ml. In the TFA test, 320 μl of the prepared 1 mg/ml sample solutions were removed followed by addition of 680 μl of PBS (-) to prepare samples having a concentration of […]. Moreover, 100 μl of this solution was removed followed by addition of 900 μl of PBS (-) to dilute 10-fold and prepare samples having a concentration of 1 μg/ml. P [Cell Proliferation Assay (CPA) Test]
After disseminating the 7th subculture of HUVEC obtained from the first generation in the same manner as above at 4 ml/well (3.0×10^5 cells/well) in a collagen-coated 6-well plate (NUNC), the cells were cultured for 48 hours at 37° C. in the presence of 5% CO2. The cells reached nearly a completely confluent state as a result of this culturing.
A double-edged, disposable razor blade was divided into four sections, of which one of those sections was pinched between a pair of forceps. Using this piece of razor blade, the cell surface in the above confluent state was scraped off. Two areas of the cell surface were scraped off in each well.
After washing the surface of the wells from which the cells had been scraped off with medium, 4.0 ml of fresh M199 (2+) medium were added followed by addition of 40 μl or 4 μl of sample solution (1 mg/ml). The cells were cultured for 24 hours at 37° C. in the presence of 5% CO2. After discarding the culture liquid, the cells were fixed for 30 minutes with methanol. Next, after staining the cells for 4 hours with Giemsa stain, the plates were washed with tap water and air dried.
Measurement of cell migration was performed by microscopically counting the number of cells that had newly migrated within the range of a 1 mm×1 mm block. […] The total number of cells counted in blocks 1 through 5 were then totaled to determine the overall total number of cells. Four fields were counted for each well.
Evaluation was performed determining the cell migration (%) according to the following formula.
Cell migration rate=number of migrating cells to which sample was added×100/number of migrating of control (+)
Control (+) indicates the number of migrating cells in the control well containing M199 (2+).

[2] = test system: human umbilical-vein endothelial cells (HUVEC); assay: Tube Formation Assay (TFA) Test, HUVEC in collagen gel; details: 20 hours, 40% or less judged remarkable; for inhibition at 1 µg/mL / inhibition at 10 µg/mL: Homo sapiens, HUVEC, read-out: TFA (inhibition rate, %)
Summary of the method: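 Inhibition rate (%) of tube formation is computed from tube lengths against control (+) and control (-), measured after 20 h at 37 °C in M-199 with 20% FCS, 30 ng/ml b-FGF and 0.1 μM PMA. Samples were applied to HUVEC on collagen and covered by a second collagen layer (double-layer gel).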

[3] = test system: human umbilical-vein endothelial cells (HUVEC); assay: Cell Proliferation Assay (CPA) Test, HUVEC, MTT; details: M199 (2+) medium; for IC50: Homo sapiens, read-out: CPA (IC50 μg/ml)
Method: as §1
100 μl of the 7th subculture obtained from first generation human umbilical-vein endothelial cells (HUVEC) were disseminated in the wells (N=3) of a 96-well plate (Iwaki, Cat. #4860-010) at a cell concentration of 5×10^4 cells/ml. M-199 medium containing +20% FCS, 10 ng/ml of b-FGF and 10 ng/ml of EGF (abbreviated as "M199 (2+)") was used for the medium.
After culturing for 24 hours at 37° C. in the presence of 5% CO2 under the above conditions, 20 μl/well of MTT solution (solution containing 5 mg/ml of PBS (-)) were added to the control well followed by accurately culturing for 4 hours at 37° C. in the presence of 5% CO2. Following completion of culturing, 100 μl/well of a stop solution (0.001 N aqueous HCl solution containing 10% SDS) were added. On the other hand, 10 μl/well of sample solutions at concentrations of 1 mg/ml and 0.1 mg/ml were added to the other wells.
After culturing for 24 hours at 37° C. in the presence of 5% CO2, the medium was replaced and 100 μl/well of M199 (2+) were added. The samples were also replaced in each well at this time.
Moreover, after additionally culturing for 48 hours at 37° C. in the presence of 5% CO2, 20 μl/well of MTT solution were added to the wells containing sample and the control well followed by accurately culturing for 4 hours at 37° C. and adding 100 μl/well of stop solution.

CNC(=O)O[C@@H]1OC=C(C(=O)NC)[C@H]2C[C@@H]3O[C@]3(C)[C@H]12 [compound 15, (1S,4aS,6S,7R,7aR)-6,7-epoxy-1,4a,5,6,7,7a-hexahydro-7-methyl-1-(methylcarbamoyloxy) cyclopenta [c]-pyrane-4-carboxylic acid methylamide]
activity at 1 µg/mL ([1]; 1 μg/ml): 71.1%
activity at 10 µg/mL ([1]; 10 μg/ml): 58.3%
inhibition at 1 µg/mL ([2]; 20 h, 1 μg/ml): -16%
inhibition at 10 µg/mL ([2]; 20 h, 10 μg/ml): -8%
IC50 [3]: > 100 µg/mL

O=c1[nH]cc(F)c(=O)[nH]1 [5-FU, 5-fluorouracil, reference compound]
activity at 1 µg/mL ([1]; 1 μg/ml): 102%
activity at 10 µg/mL ([1]; 10 μg/ml): 92.9%
inhibition at 1 µg/mL ([2]; 1 μg/ml): 42.4%
inhibition at 10 µg/mL ([2]; 10 μg/ml): 52.3%
IC50 [3]: 3.5 µg/mL (≈ 26.9 µM)

COC(=O)C1=CO[C@@H](OC(N)=O)[C@@H]2[C@@H]1C[C@@H]1O[C@]21C [compound 29, (1S,4aS,6S,7R,7aR)-1-(carbamoyloxy)-6,7-epoxy-1,4a,5,6,7,7a-hexahydro-7-methylcyclopenta [c] pyrane-4-carboxylic acid methylester]
activity at 1 µg/mL ([1]; 1 μg/ml): 89.9%
activity at 10 µg/mL ([1]; 10 μg/ml): 88%
inhibition at 1 µg/mL ([2]; 20 h, 1 μg/ml): 17.7%
inhibition at 10 µg/mL ([2]; 20 h, 10 μg/ml): 29.3%
IC50 [3]: > 100 µg/mL

CNC(=O)O[C@@H]1OC=C(C(=O)OC)[C@H]2C[C@@H]3O[C@]3(CF)[C@@H]12 [compound 50, (1S,4aS,6S,7R,7aR)-6,7-epoxy-7-(fluoromethyl)-1-(methylcarbamoloxy)-1,4a,5,6,7,7a-hexahydrocyclopenta [c] pyrane-4-carboxylic acid methylester]
activity at 1 µg/mL ([1]; 1 μg/ml): 87.9%
activity at 10 µg/mL ([1]; 10 μg/ml): 63.5%
inhibition at 1 µg/mL ([2]; 20 h, 1 μg/ml): 9.5%
inhibition at 10 µg/mL ([2]; 20 h, 10 μg/ml): 23.2%
IC50 [3]: > 100 µg/mL

CNC(=O)O[C@@H]1OC=C(C(=O)NCCc2ccccc2)[C@H]2C[C@@H]3O[C@]3(C)[C@H]12 [compound 28, (1S,4aS,6S,7R,7aR)-6,7-epoxy-1,4a,5,6,7,7a-hexahydro-7-methyl-1-(methylcarbamoyloxy) cyclopenta [c]-pyrane-4-carboxylic acid phenylethylamide]
activity at 1 µg/mL ([1]; 1 μg/ml): 94.3%
activity at 10 µg/mL ([1]; 10 μg/ml): 114%
inhibition at 1 µg/mL ([2]; 20 h, 1 μg/ml): 41.3%
inhibition at 10 µg/mL ([2]; 20 h, 10 μg/ml): 36.8%
IC50 [3]: > 100 µg/mL

COC(=O)C1=CO[C@@H](OC(=O)NC(=O)c2ccccc2)[C@@H]2[C@@H]1C[C@@H]1O[C@]21C [compound 41, (1S,4aS,6S,7R,7aR)-1-(benzoylcarbamoyloxy)-6,7-epoxy-1,4a,5,6,7,7a-hexahydro-7-methylcyclopenta [c] pyrane-4-carboxylic acid methylester]
activity at 1 µg/mL ([1]; 1 μg/ml): 102%
activity at 10 µg/mL ([1]; 10 μg/ml): 95%
inhibition at 1 µg/mL ([2]; 20 h, 1 μg/ml): 46.7%
inhibition at 10 µg/mL ([2]; 20 h, 10 μg/ml): 37.6%
IC50 [3]: 56.1 µg/mL (≈ 150 µM)

CNC(=O)O[C@@H]1OC=C(C(=O)OC)[C@H]2C[C@@H]3O[C@]3(COC(C)=O)[C@@H]12 [compound 46, (1S,4aS,6S. 7R,7aR)-7-(acetoxymethyl)-6,7-epoxy-1-(methylcarbamoyloxy)-1,4a,5,6,7,7a-hexahydro [c] pyrane-4-carboxylic acid methylester]
activity at 1 µg/mL ([1]; 1 μg/ml): 105%
activity at 10 µg/mL ([1]; 10 μg/ml): 103%
inhibition at 1 µg/mL ([2]; 20 h, 1 μg/ml): -0.8%
inhibition at 10 µg/mL ([2]; 20 h, 10 μg/ml): 1.5%
IC50 [3]: > 100 µg/mL

Protamine [reference compound]
CMA (% relative to control) ([1]; 1 μg/ml): 69.2%
CMA (% relative to control) ([1]; 10 μg/ml): 50.0%
TFA (inhibition rate, %) ([2]; 1 μg/ml): 41.0%
TFA (inhibition rate, %) ([2]; 10 μg/ml): 25.4%
CPA (IC50 μg/ml) [3]: 52.7 µg/mL

COC(=O)C1=CO[C@@H](OC(=O)NC(=O)CCl)[C@@H]2[C@@H]1C[C@@H]1O[C@]21C [compound 39, (1S,4aS,6S,7R,7aR)-1-(chloroacetylcarbamoyloxy)-6,7-epoxy-1,4a,5,6,7,7a-hexahydro-7-methylcyclopenta [c] pyrane-4-carboxylic acid methylester]
activity at 1 µg/mL ([1]; 1 μg/ml): 110%
activity at 10 µg/mL ([1]; 10 μg/ml): 94.6%
inhibition at 1 µg/mL ([2]; 20 h, 1 μg/ml): 37.6%
inhibition at 10 µg/mL ([2]; 20 h, 10 μg/ml): 39.7%
IC50 [3]: 55 µg/mL (≈ 159 µM)

COC(=O)C1=CO[C@H](OC(=O)NC(=O)CCl)[C@@H]2[C@@H]1C[C@@H]1O[C@]21C [compound 40, (1R,4aS,6S,7R,7aR)-1-(chloroacetylcarbamoyloxy)-6,7-epoxy-1,4a,5,6,7,7a-hexahydro-7-methylcyclopenta [c] pyrane-4-carboxylic acid methylester]
activity at 1 µg/mL ([1]; 1 μg/ml): 77.3%
activity at 10 µg/mL ([1]; 10 μg/ml): 66.8%
inhibition at 1 µg/mL ([2]; 20 h, 1 μg/ml): 32.8%
inhibition at 10 µg/mL ([2]; 20 h, 10 μg/ml): 23.8%
IC50 [3]: 58.1 µg/mL (≈ 168 µM)

CNC(=O)OC1OC=C(C(=O)N2CCN(CCO)CC2)C2CC3OC3(C)C12 [compound 22, (1S,4aS,6S,7R,7aR)-6,7-epoxy-1,4a,5,6,7,7a-hexahydro-7-methyl-1-(methylcarbamoyloxy) cyclopenta [c]-pyrane-4-carboxylic acid 4-(2-hydroxyethyl) piperazylamide]
activity at 1 µg/mL ([1]; 1 μg/ml): 93.4%
activity at 10 µg/mL ([1]; 10 μg/ml): 97.7%
inhibition at 1 µg/mL ([2]; 20 h, 1 μg/ml): 50.8%
inhibition at 10 µg/mL ([2]; 20 h, 10 μg/ml): 74.9%
IC50 [3]: > 100 µg/mL

C=CCOC(=O)C1=CO[C@@H](OC(=O)NC)[C@@H]2[C@@H]1C[C@@H]1O[C@]21C [compound 9, (1S,4aS,6S,7R,7aR)-6,7-epoxy-1,4a,5,6,7,7a-hexahydro-7-methyl-1-(methylcarbamoyloxy) cyclopenta [c]-pyrane-4-carboxylic acid allylester]
activity at 1 µg/mL ([1]; 1 μg/ml): 111%
activity at 10 µg/mL ([1]; 10 μg/ml): 116%
inhibition at 1 µg/mL ([2]; 20 h, 1 μg/ml): 11%
inhibition at 10 µg/mL ([2]; 20 h, 10 μg/ml): 16.5%
IC50 [3]: > 100 µg/mL

CCNC(=O)C1=CO[C@@H](OC(=O)NC)[C@@H]2[C@@H]1C[C@@H]1O[C@]21C [compound 16, (1S,4aS,6S,7R,7aR)-6,7-epoxy-1,4a,5,6,7,7a-hexahydro-7-methyl-1-(methylcarbamoyloxy) cyclopenta [c]-pyrane-4-carboxylic acid ethylamide]
activity at 1 µg/mL ([1]; 1 μg/ml): 98.1%
activity at 10 µg/mL ([1]; 10 μg/ml): 102%
inhibition at 1 µg/mL ([2]; 20 h, 1 μg/ml): 30.7%
inhibition at 10 µg/mL ([2]; 20 h, 10 μg/ml): 21.6%
IC50 [3]: > 100 µg/mL

CNC(=O)OC1OC=C(C(=O)N2CCN(C)CC2)C2CC3OC3(C)C12 [compound 20, (1S,4aS,6S,7R,7aR)-6,7-epoxy-1,4a,5,6,7,7a-hexahydro-7-methyl-1-(methylcarbamoyloxy) cyclopenta [c]-pyrane-4-carboxylic acid 4-methylpiperazylamide]
activity at 1 µg/mL ([1]; 1 μg/ml): 97.4%
activity at 10 µg/mL ([1]; 10 μg/ml): 89.5%
inhibition at 1 µg/mL ([2]; 20 h, 1 μg/ml): 34.3%
inhibition at 10 µg/mL ([2]; 20 h, 10 μg/ml): 19.6%
IC50 [3]: > 100 µg/mL
